From US11413240B2 (Board of Regents, The University of Texas System, priority 2016, dated 2022)

Assays:
[1] = in vivo; cited from earlier work
[2] = 10 g/L, 25° C. (77° F.); cited from earlier work
[3] = test system: patients with oral mucositis pain/lesions; test: Additional patients assessed after methylene blue oral rinse at 0.025%, 0.05% and 0.1% (Table 2)

CN(C)c1ccc2nc3ccc(=[N+](C)C)cc-3sc2c1 [methylene blue]
blood-brain barrier passage [1]: crosses the blood-brain barrier | pH in water [2]: 3 | analgesia ([3]; 0.05-0.1% methylene blue as a mouth rinse, almost all patients): sustained analgesia over a few days to several months | onset (of MB effect) ([3]; MB 0.025% oral rinse): 2 D | onset (of MB effect) ([3]; MB 0.05% oral rinse): 1 W | tolerability ([3]; mouth rinse, case series): tolerated well
